According to US7442699B2, “Anilinopyrimidine derivatives as IKK inhibitors and compositions and methods related thereto” (Signal Pharmaceuticals, LLC, priority 2000, dated 2008):
pIC50: −log10 of the molar value. Counter-ions that a name gives are not always drawn. Like-named read-outs stand apart in the source and are kept apart here.

Molecular target: T1, IKK-2 (Homo sapiens, UniProt O14920, S177E/S181E)
T1 construct: His6
T1 sequence (O14920 1-756 S177E/S181E): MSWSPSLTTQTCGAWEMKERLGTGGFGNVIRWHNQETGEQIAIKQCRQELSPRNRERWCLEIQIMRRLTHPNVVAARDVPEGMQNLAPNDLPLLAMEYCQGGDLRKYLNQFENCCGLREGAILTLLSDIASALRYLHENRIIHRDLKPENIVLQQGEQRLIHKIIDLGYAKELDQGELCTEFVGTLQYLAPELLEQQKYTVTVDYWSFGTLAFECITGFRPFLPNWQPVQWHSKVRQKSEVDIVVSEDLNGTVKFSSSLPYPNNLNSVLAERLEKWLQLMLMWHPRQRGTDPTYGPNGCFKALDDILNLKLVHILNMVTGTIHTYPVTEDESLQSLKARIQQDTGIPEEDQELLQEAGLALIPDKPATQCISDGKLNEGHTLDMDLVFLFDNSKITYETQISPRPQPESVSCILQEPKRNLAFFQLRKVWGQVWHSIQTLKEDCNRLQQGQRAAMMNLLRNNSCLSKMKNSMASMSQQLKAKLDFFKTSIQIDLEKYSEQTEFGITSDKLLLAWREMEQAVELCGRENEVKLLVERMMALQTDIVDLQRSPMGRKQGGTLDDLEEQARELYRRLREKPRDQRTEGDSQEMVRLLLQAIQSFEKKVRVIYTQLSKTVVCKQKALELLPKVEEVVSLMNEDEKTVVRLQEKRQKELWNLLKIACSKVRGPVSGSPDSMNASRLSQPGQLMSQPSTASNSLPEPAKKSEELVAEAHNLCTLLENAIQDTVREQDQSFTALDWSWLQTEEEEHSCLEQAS
Assay: IKK-2 Enzyme Assay
Type: biochemical
Conditions: read-out: IC50 value in the IKK-2 Enzyme Assay
Method: The mixture is preincubated for 15 minutes at room temperature. […] After 30 minutes the precipitate is harvested onto a filter plate to which 50 μl of scintillation fluid is added and then quantified by a scintillation counter.

[1] = more preferred compounds, 500 nM or less
[2] = preferred compounds, 1 μM or less

pIC50 [1]	pIC50 [2]	SMILES
≥ 6.30	≥ 6.00	CC(=O)N1CCN(C(=O)c2ccc(Nc3nccc(-c4ccc(S(=O)(=O)c5ccncc5)cc4)n3)cc2)CC1 [Compound 17-29]
	≥ 6.00	CC(=O)NCCNC(=O)c1ccc(Nc2nccc(-c3ccc(Cl)cc3)n2)cc1 [Compound 17-22]
	≥ 6.00	CN1CCCC1CCNC(=O)c1ccc(Nc2nccc(-c3ccc(Cl)cc3)n2)cc1 (centres unmarked) [Compound 17-152]
	≥ 6.00	CN(CCc1ccccn1)C(=O)c1ccc(Nc2nccc(-c3ccc(Cl)cc3)n2)cc1 [Compound 17-151]
≥ 6.30	≥ 6.00	O=C(c1ccc(Nc2nccc(-c3ccc(Cl)cc3)n2)cc1)N1CCNCC1 [Compound 18, 4-{[4-(4-chlorophenyl)pyrimidin-2-yl]amino}benzoic acid piperazine amide hydrochloride]
	≥ 6.00	O=C(NCCN1CCOCC1)c1ccc(Nc2nccc(-c3ccc(Cl)cc3)n2)cc1 [Compound 17-142]
≥ 6.30	≥ 6.00	O=C(c1ccc(Nc2nccc(-c3ccc(Cl)cc3)n2)cc1)N1CCN(C(=O)c2ccco2)CC1 [Compound 17-159]
≥ 6.30	≥ 6.00	Cc1noc(C)c1C(=O)NC1CCN(C(=O)c2ccc(Nc3nccc(-c4ccc(Cl)cc4)n3)cc2)CC1 [Compound 20-2]
	≥ 6.00	NC(=O)c1ccc(Nc2nccc(-c3ccc(S(=O)(=O)c4cccnc4)cc3)n2)cc1 [Compound 3-13]
≥ 6.30	≥ 6.00	NC(=O)c1ccc(Nc2nccc(-c3ccc(S(=O)(=O)c4ccncc4)cc3)n2)cc1 [Compound 3-8]
≥ 6.30	≥ 6.00	CC(C)NC(=O)CN1CCN(C(=O)c2ccc(Nc3nccc(-c4ccc(SCCCO)cc4)n3)cc2)CC1 [Compound 17-32]
≥ 6.30	≥ 6.00	CC(=O)N1CCCN(C(=O)c2ccc(Nc3nccc(-c4ccc(Cl)cc4)n3)cc2)CC1 [Compound 17-160]
	≥ 6.00	O=C(c1ccc(Nc2nccc(-c3ccc(Cl)cc3)n2)cc1)N1CCCCC1 [Compound 17-71]
	≥ 6.00	O=C(c1ccc(Nc2nccc(-c3ccc(Cl)cc3)n2)cc1)N1CCN(c2ccc([N+](=O)[O-])cc2)CC1 [Compound 17-136]
≥ 6.30	≥ 6.00	CN(C)C(=O)c1ccc(Nc2nccc(-c3ccc(Cl)cc3)n2)cc1 [Compound 17-2]
	≥ 6.00	O=C(c1ccc(Nc2nccc(-c3ccc(Cl)cc3)n2)cc1)N1CC=CCC1 [Compound 17-144]
≥ 6.30	≥ 6.00	CCN1CCN(C(=O)c2ccc(Nc3nccc(-c4ccc(Cl)cc4)n3)cc2)CC1 [Compound 17-35]
≥ 6.30	≥ 6.00	O=CN1CCN(C(=O)c2ccc(Nc3nccc(-c4ccc(Cl)cc4)n3)cc2)CC1 [Compound 17-131]
	≥ 6.00	O=C(NCCCO)c1ccc(Nc2nccc(-c3ccc(Cl)cc3)n2)cc1 [Compound 17-25]
≥ 6.30	≥ 6.00	CN(C)C(=O)c1ccc(Nc2nccc(-c3ccc(Br)cc3)n2)cc1 [Compound 17-18]

pIC50 [1]	pIC50 [2]	SMILES
	≥ 6.00	CNC(=O)c1ccc(Nc2nccc(-c3ccc(Cl)cc3)n2)cc1 [Compound 17-3]
	≥ 6.00	NC(=O)c1ccc(Nc2nccc(-c3ccc(S(=O)(=O)CCCO)cc3)n2)cc1 [Compound 3-15]
≥ 6.30	≥ 6.00	CN(C)CCCNC(=O)c1ccc(Nc2nccc(-c3ccc(Cl)cc3)n2)cc1 [Compound 17-154]
≥ 6.30	≥ 6.00	CC(=O)N1CCN(C(=O)c2ccc(Nc3nccc(-c4ccc(Cl)cc4)n3)cc2)CC1 [Compound 17-129]
≥ 6.30	≥ 6.00	O=C(NC1CCN(C(=O)c2ccc(Nc3nccc(-c4ccc(Cl)cc4)n3)cc2)CC1)c1cccs1 [Compound 20-3]
	≥ 6.00	COCCCNC(=O)c1ccc(Nc2nccc(-c3ccc(Cl)cc3)n2)cc1 [Compound 17-72]
≥ 6.30	≥ 6.00	O=C(c1ccc(Nc2nccc(-c3ccc(Cl)cc3)n2)cc1)N1CCC(O)CC1 [Compound 17-20]
≥ 6.30	≥ 6.00	COC(=O)CNC(=O)c1ccc(Nc2nccc(-c3ccc(Cl)cc3)n2)cc1 [Compound 17-91]
≥ 6.30	≥ 6.00	CN(C)C(=O)c1ccc(Nc2nccc(-c3ccc(SCCCO)cc3)n2)cc1 [Compound 17-31]
≥ 6.30	≥ 6.00	CN(C)C(=O)NC1CCN(C(=O)c2ccc(Nc3nccc(-c4ccc(Cl)cc4)n3)cc2)CC1 [Compound 20-5]
	≥ 6.00	NC(=O)c1ccc(Nc2nccc(-c3ccc(Cl)cc3)n2)cc1 [Compound 1, 4-{[4-(4-chlorophenyl)pyrimidin-2-yl]amino}benzamide]
≥ 6.30	≥ 6.00	CCOC(=O)N1CCN(C(=O)c2ccc(Nc3nccc(-c4ccc(Cl)cc4)n3)cc2)CC1 [Compound 17-137]
≥ 6.30	≥ 6.00	O=C(c1ccc(Nc2nccc(-c3ccc(S(=O)(=O)c4ccncc4)cc3)n2)cc1)N1CCN(C(=O)c2ccco2)CC1 [Compound 17-30]
≥ 6.30	≥ 6.00	O=C(c1ccc(Nc2nccc(-c3ccc(Cl)cc3)n2)cc1)N1CCC(N2CCCC2)CC1 [Compound 17-171]
≥ 6.30		CCC(=O)N1CCN(C(=O)c2ccc(Nc3nccc(-c4ccc(Cl)cc4)n3)cc2)CC1 [Compound 17-37]
≥ 6.30	≥ 6.00	CN1CCN(C(=O)c2ccc(Nc3nccc(-c4ccc(Cl)cc4)n3)cc2)CC1 [Compound 17-127]
	≥ 6.00	CCCNC(=O)c1ccc(Nc2nccc(-c3ccc(Cl)cc3)n2)cc1 [Compound 17-132]
	≥ 6.00	NC(=O)c1ccc(Nc2nccc(-c3ccc4ccccc4c3)n2)cc1 [Compound 3-34]
≥ 6.30	≥ 6.00	O=C(c1ccc(Nc2nccc(-c3ccc(Cl)cc3)n2)cc1)N1CCOCC1 [Compound 17-133]
	≥ 6.00	O=C(NCCCN1CCCCC1)c1ccc(Nc2nccc(-c3ccc(Cl)cc3)n2)cc1 [Compound 17-23]

pIC50 [1]	pIC50 [2]	SMILES
≥ 6.30	≥ 6.00	COCC(=O)NC1CCN(C(=O)c2ccc(Nc3nccc(-c4ccc(Cl)cc4)n3)cc2)CC1 [Compound 20-6]
≥ 6.30	≥ 6.00	O=C(NCCCN1CCOCC1)c1ccc(Nc2nccc(-c3ccc(Cl)cc3)n2)cc1 [Compound 17-86]
≥ 6.30	≥ 6.00	O=C(c1ccc(Nc2nccc(-c3ccc(Cl)cc3)n2)cc1)N1CCC(N2CCCCC2)CC1 [Compound 17-169]
≥ 6.30	≥ 6.00	O=C(c1ccc(Nc2nccc(-c3ccc(Cl)cc3)n2)cc1)N1CCN(Cc2cccnc2)CC1 [Compound 17-161]
≥ 6.30	≥ 6.00	CC(=O)N1CCN(C(=O)c2ccc(Nc3nccc(-c4ccc(SCCCO)cc4)n3)cc2)CC1 [Compound 17-33]
≥ 6.30	≥ 6.00	CC(C)(C)OC(=O)N1CCN(C(=O)c2ccc(Nc3nccc(-c4ccc(Cl)cc4)n3)cc2)CC1 [Compound 17-36]
	≥ 6.00	CCN(CC)CCCNC(=O)c1ccc(Nc2nccc(-c3ccc(Cl)cc3)n2)cc1 [Compound 17-153]
≥ 6.30	≥ 6.00	CC(=O)NC1CCN(C(=O)c2ccc(Nc3nccc(-c4ccc(Cl)cc4)n3)cc2)CC1 [Compound 20-1, N-{1-[(4-{[4-(4-Chlorophenyl)pyrimidin-2-yl]amino}phenyl)carbonyl]-4-piperidyl}acetamide]
≥ 6.30	≥ 6.00	CCN(C(C)=O)C1CCN(C(=O)c2ccc(Nc3nccc(-c4ccc(Cl)cc4)n3)cc2)C1 (centres unmarked) [Compound 17-162]
≥ 6.30	≥ 6.00	O=C(c1ccc(Nc2nccc(-c3ccc(Cl)cc3)n2)cc1)N1CCC(O)C1 (centres unmarked) [Compound 17-28]
≥ 6.30	≥ 6.00	CN(C)CCN(Cc1ccccc1)C(=O)c1ccc(Nc2nccc(-c3ccc(Cl)cc3)n2)cc1 [Compound 17-150]
≥ 6.30	≥ 6.00	NC(=O)c1ccc(Nc2nccc(-c3ccc(S(=O)(=O)c4ccccc4)cc3)n2)cc1 [Compound 3-21]
≥ 6.30	≥ 6.00	O=C(NC1CCN(C(=O)c2ccc(Nc3nccc(-c4ccc(Cl)cc4)n3)cc2)CC1)N1CCOCC1 [Compound 20-4]
	≥ 6.00	O=C(c1ccc(Nc2nccc(-c3ccc(Cl)cc3)n2)cc1)N1CCN(Cc2ccc3c(c2)OCO3)CC1 [Compound 17-128]
≥ 6.30	≥ 6.00	O=C(c1ccc(Nc2nccc(-c3ccc(Cl)cc3)n2)cc1)N1CCC[C@@H]1CO [Compound 17-27]
	≥ 6.00	CCN(Cc1ccncc1)C(=O)c1ccc(Nc2nccc(-c3ccc(Cl)cc3)n2)cc1 [Compound 17-147]
	≥ 6.00	O=C(NCCc1ccccn1)c1ccc(Nc2nccc(-c3ccc(Cl)cc3)n2)cc1 [Compound 17-118]
≥ 6.30	≥ 6.00	C[C@@H]1CN(C(=O)c2ccc(Nc3nccc(-c4ccc(Cl)cc4)n3)cc2)C[C@H](C)N1 [Compound 17-190]
